Test results as given in patent publication US12492181B2, “Gem-disubstituted piperidine melanocortin subtype-2 receptor (MC2R) antagonists and uses thereof” (Crinetics Pharmaceuticals, Inc., priority 2019, dated 2025).

Biological target: T1, hMC2 receptor (crude hMC2R membranes from CRE-bla-CHO-K1 cells stably expressing hMC2 receptor and hMRAP accessory protein) (Homo sapiens, UniProt Q01718)
T1 construct: crude membrane fractions
Test: hMC2 membrane binding assay ([125I]ACTH (1-39) Tyr23, SPA)
Conditions: displacement of 0.2 nM [125I]ACTH (1-39) Tyr23 from hMC2R membranes, 1.5 hours at room temperature; read-out: MC2R binding potency
Summary of the method: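 Crude membranes from CRE-bla-CHO-K1 cells stably co-expressing hMC2R and hMRAP, premixed with WGA PVT SPA beads in pH 7.4 HEPES buffer (5 mM MgCl2, 1 mM CaCl2, 0.20% BSA, protease inhibitors). Compounds compete with [125I]ACTH(1-39) Tyr23, read by scintillation. Ki from non-linear regression.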

T1 sequence (Q01718 whole entry): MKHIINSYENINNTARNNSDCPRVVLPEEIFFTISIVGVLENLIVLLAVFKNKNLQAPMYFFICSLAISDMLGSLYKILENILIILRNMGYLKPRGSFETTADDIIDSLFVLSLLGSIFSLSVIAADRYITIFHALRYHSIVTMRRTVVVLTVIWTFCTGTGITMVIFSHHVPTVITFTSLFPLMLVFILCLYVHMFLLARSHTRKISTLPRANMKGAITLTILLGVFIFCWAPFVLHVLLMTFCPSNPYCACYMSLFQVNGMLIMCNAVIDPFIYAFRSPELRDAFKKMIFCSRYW
T1 sequence (Q8TCY5 whole entry partner): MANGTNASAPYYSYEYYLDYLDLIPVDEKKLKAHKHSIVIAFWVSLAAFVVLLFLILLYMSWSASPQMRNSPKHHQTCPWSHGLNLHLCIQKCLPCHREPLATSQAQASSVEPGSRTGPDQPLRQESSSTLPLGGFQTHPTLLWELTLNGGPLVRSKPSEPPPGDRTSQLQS

| SMILES | Ki [µM] |
| --- | --- |
| CCOc1ncccc1-c1ccc(C2(NC(=O)C3CN(C)C3)CCN(c3ccc(C(F)(F)F)cc3C#N)CC2)cn1 [Compound 2-32, N-{1-[2-cyano-4-(trifluoromethyl)phenyl]-4-{2′-ethoxy-[2,3′-bipyridin]-5-yl}piperidin-4-yl}-1-methylazetidine-3-carboxamide] | < 0.01 |
| COc1ncccc1-c1ccc(C2(C(=O)NCCN(C)C)CCN(c3ccc(C(F)(F)F)cc3Cl)CC2)cn1 [Compound 1-273, 1-[2-chloro-4-(trifluoromethyl)phenyl]-N-[2-(dimethylamino)ethyl]-4-{2′-methoxy-[2,3′-bipyridin]-5-yl}piperidine-4-carboxamide] | < 0.01 |
| CCOc1ncccc1-c1ccc(C2(NC(=O)[C@@H]3CCCN3C)CCN(c3ccc(C(F)(F)F)cc3C#N)CC2)cc1 [Compound 2-11, (2S)—N-{1-[2-cyano-4-(trifluoromethyl)phenyl]-4-[4-(2-ethoxypyridin-3-yl)phenyl]piperidin-4-yl}-1-methylpyrrolidine-2-carboxamide] | 0.01 to 0.1 |
| CCOc1ncccc1-c1ccc(C2(NC(=O)CCN(C)C)CCN(c3ccc(C(F)(F)F)cc3C#N)CC2)cn1 [Compound 2-10, N-{1-[2-cyano-4-(trifluoromethyl)phenyl]-4-{2′-ethoxy-[2,3′-bipyridin]-5-yl}piperidin-4-yl}-3-(dimethylamino)propanamide] | < 0.01 |
| CC(=O)c1sccc1-c1ccc(C2(C(=O)N[C@H]3CCN(C)C3)CCN(c3ccc(C(F)(F)F)cc3C#N)CC2)cn1 [Compound 1-146, 4-[6-(2-acetylthiophen-3-yl)pyridin-3-yl]-1-[2-cyano-4-(trifluoromethyl)phenyl]-N-[(3S)-1-methylpyrrolidin-3-yl]piperidine-4-carboxamide] | < 0.01 |
| CCOc1ncccc1-c1ccc(C2(C(=O)NC[C@H](N)CO)CCN(c3ccc(C(F)(F)F)cc3C#N)CC2)cn1 [Compound 1-28, N-[(2S)-2-amino-3-hydroxypropyl]-1-[2-cyano-4-(trifluoromethyl)phenyl]-4-{2′-ethoxy-[2,3′-bipyridin]-5-yl}piperidine-4-carboxamide] | < 0.01 |
| CNCCNC(=O)C1(c2ccc(-c3cccnc3OC)nc2)CCN(c2ccc(C(F)(F)F)cc2Cl)CC1 [Compound 1-274, 1-[2-chloro-4-(trifluoromethyl)phenyl]-4-{2′-methoxy-[2,3′-bipyridin]-5-yl}-N-[2-(methylamino)ethyl]piperidine-4-carboxamide] | < 0.01 |
| CN1CC[C@@H](NC(=O)C2(c3ccc(-c4cccc(F)c4F)nc3)CCN(c3ccc(C(F)(F)F)cc3C#N)CC2)C1 [Compound 1-61, 1-[2-cyano-4-(trifluoromethyl)phenyl]-4-[6-(2,3-difluorophenyl)pyridin-3-yl]-N-[(3R)-1-methylpyrrolidin-3-yl]piperidine-4-carboxamide] | < 0.01 |
| CCOc1ncccc1-c1ccc(C2(C(=O)N[C@H]3CCN(C)C3)CCN(c3ccc(C(F)F)cc3C#N)CC2)cn1 [Compound 1-37, 1-[2-cyano-4-(difluoromethyl)phenyl]-4-{2′-ethoxy-[2,3′-bipyridin]-5-yl}-N-[(3S)-1-methylpyrrolidin-3-yl]piperidine-4-carboxamide] | < 0.01 |
| CCOc1ncccc1-c1ccc(C2(NC(=O)O[C@H]3CCN(C)C3)CCN(c3ccc(C(F)(F)F)cc3C#N)CC2)cc1 [Compound 2-13, (3S)-1-methylpyrrolidin-3-yl N-{1-[2-cyano-4-(trifluoromethyl)phenyl]-4-[4-(2-ethoxypyridin-3-yl)phenyl]piperidin-4-yl}carbamate] | 0.01 to 0.1 |
| CCOc1ncccc1-c1ccc(C2(NC(=O)N[C@H]3CCN(C)C3)CCN(c3ccc(C(F)(F)F)cc3C#N)CC2)cn1 [Compound 2-20, 1-{1-[2-cyano-4-(trifluoromethyl)phenyl]-4-{2′-ethoxy-[2,3′-bipyridin]-5-yl}piperidin-4-yl}-3-[(3S)-1-methylpyrrolidin-3-yl]urea] | < 0.01 |
| CN1CC[C@@H](NC(=O)C2(c3ccc(-c4ccccc4C4CC4)nc3)CCN(c3ccc(C(F)(F)F)cc3C#N)CC2)C1 [Compound 1-113, 1-[2-cyano-4-(trifluoromethyl)phenyl]-4-[6-(2-cyclopropylphenyl)pyridin-3-yl]-N-[(3R)-1-methylpyrrolidin-3-yl]piperidine-4-carboxamide] | < 0.01 |
| Cn1cccc1-c1ccc(C2(C(=O)NCCN3CCC3)CCN(c3ccc(C(F)(F)F)cc3C#N)CC2)cn1 [Compound 1-248, N-[2-(azetidin-1-yl)ethyl]-1-[2-cyano-4-(trifluoromethyl)phenyl]-4-[6-(1-methyl-1H-pyrrol-2-yl)pyridin-3-yl]piperidine-4-carboxamide] | < 0.01 |
| COc1ccccc1-c1ccc(C2(NC(=O)NC3CN(C)C3)CCN(c3ccc(C(F)(F)F)cc3C#N)CC2)cn1 [Compound 2-59, 1-{1-[2-cyano-4-(trifluoromethyl)phenyl]-4-[6-(2-methoxyphenyl)pyridin-3-yl]piperidin-4-yl}-3-(1-methylazetidin-3-yl)urea] | 0.01 to 0.1 |
| CCc1ccccc1-c1ccc(C2(C(=O)N[C@H]3CCN(C)C3)CCN(c3ccc(C(F)(F)F)cc3C#N)CC2)cn1 [Compound 1-104, 1-[2-cyano-4-(trifluoromethyl)phenyl]-4-[6-(2-ethylphenyl)pyridin-3-yl]-N-[(3S)-1-methylpyrrolidin-3-yl]piperidine-4-carboxamide] | < 0.01 |
| CCOc1ncccc1-c1ccc(C2(C(=O)N[C@H]3CCN(C)C3)CCN(c3ccc(C(F)(F)F)nc3C(N)=O)CC2)cn1 [Compound 1-27, 3-(4-{2′-ethoxy-[2,3′-bipyridin]-5-yl}-4-{[(3S)-1-methylpyrrolidin-3-yl]carbamoyl}piperidin-1-yl)-6-(trifluoromethyl)pyridine-2-carboxamide] | 0.01 to 0.1 |
| CCOc1ncccc1-c1ccc(C2(C(=O)N[C@@H]3CCN(C)C3)CCN(c3ccc(C(F)(F)F)cc3C#N)CC2)cc1 [Compound 1-1, 1-[2-cyano-4-(trifluoromethyl)phenyl]-4-[4-(2-ethoxypyridin-3-yl)phenyl]-N-[(3R)-1-methylpyrrolidin-3-yl]piperidine-4-carboxamide] | < 0.01 |
